The results in this text go back to US10772884B2, “Sulphate salts of N-(3-(4-(3-(diisobutylamino)propyl)piperazin-1-yl)propyl)-1H-benzo[d]imidazol-2-amine, preparation thereof and use of the same” (ALZPROTECT, priority 2012, dated 2020).

One series relates to lipid peroxidation. Nature of the series: Chronic treatment 3-months, LPO levels (modified FOX assay). Particulars: mice, 0.5, 1 or 3 mg/kg in drinking water, hippocampi. In kind it is in vivo, C57Bl6 female mice. The source says: (§1) Neuropathological disorders are also characterized by abnormal phosphorylation of Tau protein (AT100). Hyperphosphorylation of the tau protein (on specific sites) can result in the intracellular accumulation of neurofibrillary tangles (NFTs), involved in the pathogenesis of Alzheimer's disease and other tauopathies. One axis of the study was thus to study the effect of the sulphate salt of example 2 on this abnormal phosphorylation. In parallel, such effect was also monitored with regards to the non-pathological phosphorylation of Tau protein (AT8) which should remain unaffected. Another axis of this study was thus the impact of the sulphate salt of example 2 on oxidative stress (OS). Therefore, levels of lipidic peroxidation, a well known marker for the evaluation of oxidative stress, were determined. […]
4-month old C57Bl6 female mice were provided with 0.5, 1 or 3 mg/kg of compound of example 2 dissolved in their drinking water. […] Volume consumed was calculated by weighing each bottle after each week and the remaining volume was discarded.
LPO levels measurements: the level of lipid peroxidation in hippocampi is determined as cumene hydroperoxide (CHP) equivalents and expressed as CHP equivalents per wet weight of tissue and as percentage of control group data following the modified FOX assay.

The subject of the next series is SH-5Y5Y cell line. Nature of the series: cytotoxicity CC50. The format is cell-based, human. The conditions noted are these: concentration at which 50% of plated cells remain alive. The protocol:
In addition, it is remarked that no cytotoxicity was found for this sulphate salt, its CC50 on SH-5Y5Y cell line was found greater than 30 μM. CC50 is defined herein as the concentration at which 50% of plated cells remain alive.

Series [1] has as its system APP metabolism. Nature of the series: In vivo APP metabolism assay, acute treatment 24 h p.o. Details: species or system C57Bl6 female mice. The method, then: In Vivo APP Metabolism Assay
(§2) In vivo experiments were carried out on 4-month old C57Bl6 female mice or 2-month old Sprague Dawley rats.
Acute treatment: 24 h p.o.
C57Bl6 female mice were treated per os (gavage) with vehicle or compound (example 2) at 0.25, 0.5, 1, 3 and 6 mg/kg mg/kg (n=6 per group) for 24 h. The product was administered with a disposable Rodent Feeding Tube ECIMED Ref # V0104030 (4 mm×30 mm). The animals were sacrificed after 24 h, the brain was immediately removed for dissection. Levels of CTFα in the frontal cortex (FC) and/or the hippocampus (HIP) were measured by western-blot analysis as previously described. Briefly, tissues were homogenized with […], of lysis buffer (10 mL of Laemmli Pre-Lysis Buffer and 1 tablet of Protease Inhibitor cocktail Complete Mini (Roche)) in a potter. After sonication (5 min), homogenates were centrifuged at 1600 rpm 5 min 4° C. Supernatants were aliquoted and stored at −80° C. before western blot analysis.

Another series in a line: water solubility. In kind it is physicochemical.
The subject of the next series is Tau protein. The series is described as follows: Chronic treatment 3-months, Tau protein phosphorylation. The format is in vivo, C57Bl6 female mice. The conditions noted are these: mice, 0.5, 1 or 3 mg/kg in drinking water, brain tissues.
From the text: Chronic Treatment: 3-Months
as §1, with “determined. Indeed, oxidative stress (OS), by the generation of toxic reactive oxygen species (ROS) and oxidative damage (oxidation of vital cellular components as lipids, proteins and DNA), is believed to be involved in the pathogenesis of neurodegenerative disorders.” for “determined.”
4-month old C57Bl6 female mice were provided with 0.5, 1 or 3 mg/kg of compound of example 2 dissolved in their drinking water. […] Volume consumed was calculated by weighing each bottle after each week and the remaining volume was discarded. […]

In series [2] the test system is APP metabolism in SH-5Y5Y cells (human neuroblastoma cell line overexpressing wild type human APP). Nature of the series: In vitro APP metabolism assay. The format is cell-based. Particulars: 0.3, 1, 3 and 10 μM, 24 h. The protocol:
In Vitro APP Metabolism Assay
This assay was performed using SH-5Y5Y cells (human neuroblastoma cell line overexpressing wild type human APP) which were treated for 24 h with the sulphate salt of example 2. This test was carried out at four different compound concentrations of 0.3, 1, 3 and 10 μM. Quantification of different metabolites was achieved by western-blot analysis. CTFa, CTFβ and AICD were analysed using anti-actin ((I-19) (SC-1616 Santa Cruz Biotechnology; 1:1000 from 200 μg/ml stock) as an internal control and anti-C term APP antibody (1:250000 in washing buffer). Protein concentrations were determined by the BCA Protein Assay Kit (Thermo Scientific). Samples (20 μg total protein) were separated by 16% SDS-PAGE according to the molecular weight of each protein, and transferred to nitrocellulose membranes.

Series [3] deals with APP metabolism. The series is described as follows: In vivo APP metabolism assay, chronic treatment 1-month. Set-up: species or system Sprague Dawley rats. Particulars: rats, 1 or 10 mg/kg/day in drinking water, one month. The protocol:
as §2
Chronic Treatment: 1-Month
Rats were provided for one month with 1 or 10 mg/kg/day of the compound of example 2 dissolved in their drinking water. […] The animals were sacrificed after one month and levels of CTFα and CTFβ in the frontal cortex (FC) and/or the hippocampus (HIP) were measured by western-blot analysis as previously described. Dose dependent results are shown on FIGS. 22-a and 22-b. […] The frontal cortex is generally the first region of the brain to be affected by amyloid plaques formation in abnormal APP metabolism related diseases while the hippocampus, which is highly involved in memory and recollection processes, is latterly but severely affected. The sulphate salt of example 2 thus has very positive effect on APP metabolism in both the frontal cortex and the hippocampus and could is therefore of interest in the treatment of neurodegenerative diseases, in particular for both early and advanced stages of abnormal APP metabolism related diseases.

A short description of series [4]: long term stability (oxidation) in solid state. The format is physicochemical. The conditions noted are these: oxidation at the piperazine ring.
Series [5] is described as follows: salt formation results (physical form). In kind it is physicochemical. The conditions noted are these: Acid eq. added 0. The protocol: The hydrochloride, hydrobromide, acetate, tartrate, fumarate, malate, oxalate and sulphate salts of N-(3-(4-(3-(diisobutylamino)propyl)piperazin-1-yl)propyl)-1H-benzo[d]imidazol-2-amine were prepared according to procedures similar to those described in the previous examples or standard salt formation methods well known in the art.

As usually defined, the CC50 is the concentration that lowers cell viability or growth by half. A low value points to harm at low concentration.

Counter-ions that a name gives are not always drawn. Where only a bound is given, the exact number is not on record here.

Turning to `CC(C)CN(CCCN1CCN(CCCNc2nc3ccccc3[nH]2)CC1)CC(C)C` [Example 2, N-(3-(4-(3-(diisobutylamino)propyl)piperazin-1-yl)propyl)-1H-benzo[d]imidazol-2-amine, 1.8 eq sulphate salt], the LPO levels entry with lipid peroxidation is reported as “significant decrease”. In the series on SH-5Y5Y cell line, this compound showed a CC50 greater than 30 µM. Also, the “CTFα levels in the frontal cortex, comparison to the oxalate salt of WO2006/051489” value with APP metabolism [1] (mice, 6 mg/kg per os) is on record as “superior efficiency”. Further, in the series with APP metabolism [1] (mice, 0.25, 0.5, 1, 3 and 6 mg/kg per os), the “CTFα levels in the frontal cortex” value is listed as “increasing concentrations”. Further, in “water solubility”, the water solubility result is “remarkable high solubility”. Also, in the series on Tau protein, the “AT8 levels (normal Tau protein phosphorylation)” value is on record as “not affecting” and the “AT100 levels (pathological Tau protein phosphorylation)” value is on record as “decreases”. For the same compound, in [2], the Aβ1-42 levels result was “decreased level” and the sAPPα levels entry was “dose dependent increased levels”. In addition, in series [2] (western-blot), the AICD levels result was “dose dependent increased levels” and the CTFα levels result is reported as “dose dependent increased levels”. In the series with APP metabolism [3], the “CTFα levels in the frontal cortex” value was “increasing concentrations” and the “CTFβ levels in the hippocampus” value is “decreasing concentrations”.

As for `CC(C)CN(CCCN1CCN(CCCNc2nc3ccccc3[nH]2)CC1)CC(C)C` [Free base, N-(3-(4-(3-(diisobutylamino)propyl)piperazin-1-yl)propyl)-1H-benzo[d]imidazol-2-amine], in series [4], the long term stability entry was “long term stability issues”. In addition, in [5], the Physical form result is “Amorphous powder”.
